This assay addresses MAPK14;MAPK11;MAPK12 (human) (UniProt Q16539). Put plainly: Inhibition of p38 Kinase Activity.
Regarding `Cc1ccc(C(N)=O)cc1Nc1nc(N[C@H]2CCN(Cc3ccc(O)cc3)C2)nc(N(C)CC(C)(C)C)n1`, the IC50 is under 1000 nM.

The molecule `CC1(C)C2CCC(CNc3nc(Nc4ccc5ncsc5c4)cc(N4CCNCC4)n3)C1C2` (configuration not stated) showed an IC50 of under 10000 nM.

Regarding `C=CCN1CC[C@H](Nc2nc(Nc3cc(C(=O)NCC)ccc3C)nc(N(C)CC3CCCC3)n2)C1`, the IC50 was under 1000 nM.

Take `Cc1ccc(C(N)=O)cc1Nc1nc(N[C@H]2CCNC2)nc(N(C)CC23CC4CC(CC(C4)C2)C3)n1`: the IC50 was under 1000 nM.

For the molecule `Cc1ccc(C(N)=O)cc1N(C)c1nc(NC2CCCC2)nc(N[C@H]2CCNC2)n1`, the IC50 was under 1000 nM.

Molecule `O=C(O)CCC(=O)N1CCN(c2nc(Nc3ccc4ncsc4c3)nc(NC3CCc4ccccc43)n2)CC1` (configuration not stated) gave an IC50 of under 10000 nM.

In turn, `CC(C)CN(C)c1nc(NC2CCN(CC3CCNCC3)C2)nc(NC2CC(C(N)=O)CCC2C)n1` (configuration not stated) yielded an IC50 of under 1000 nM.

As to `CN(CC1CCCCC1)c1nc(Nc2ccc3ncsc3c2)nc(N2CCNCC2)n1`, the IC50 was under 10000 nM.

`CC(CNc1nc(Cl)nc(Nc2ccc3ncsc3c2)n1)c1ccccc1` (configuration not stated) showed an IC50 of under 10000 nM.

In turn, `Cc1ccc(C(N)=O)cc1Nc1nc(NC2CCN(Cc3ccc(C(F)(F)F)cc3)C2)nc(N(C)CC(C)C)n1` (configuration not stated) yielded an IC50 of under 1000 nM.

Molecule `Cc1ccc(C(N)=O)cc1Nc1nc(NC2CCNC2)nc(N(C)CC(C)(C)C)n1` (configuration not stated) showed an IC50 of under 1000 nM.

In the case of `COCC(=O)N1CCN(c2nc(NCC(C)c3ccccc3)nc(Nc3ccc4ncsc4c3)n2)CC1` (configuration not stated), the IC50 was under 10000 nM.

`CNCCN(C)c1nc(NCc2ccc(F)cc2F)nc(-n2cnc3ccccc32)n1` gave an IC50 of under 10000 nM.

`CNc1nc(NCC(C)c2ccccc2)nc(Nc2ccc3ncsc3c2)n1` (configuration not stated) had an IC50 of under 10000 nM.

Molecule `CC(CNc1nc(Nc2ccc3ncsc3c2)nc(N(C)CCCN(C)C(=N)N)n1)c1ccccc1` (configuration not stated) gave an IC50 of under 10000 nM.

`NC(=O)C1CCN(c2nc(Nc3ccc4ncsc4c3)cc(NC3CCC3)n2)CC1` registered an IC50 of under 10000 nM.

With `Cc1ccc(C(N)=O)cc1Nc1nc(NC(C)C2CCCCC2)nc(N2CCNCC2)n1` (configuration not stated), the IC50 is under 1000 nM.

Molecule `Cc1ccc(C(N)=O)cc1Nc1nc(O[C@H]2CCNC2)nc(N(C)CC(C)(C)C)n1` displayed an IC50 of under 1000 nM.

In turn, `COC(=O)CC(CNc1nc(Cl)nc(Nc2ccc3ncsc3c2)n1)c1ccc(Cl)cc1` (configuration not stated) yielded an IC50 of under 10000 nM.

`CONC(=O)c1ccc(C)c(Oc2nc(N(C)CC(C)(C)C)nc(N3CCCN(C)CC3)n2)c1`: the IC50 was under 30000 nM.

For `CCCC1(C)CCN(c2nc(Nc3cc(C(=O)NC)ccc3C)nc(N[C@@H]3CCNC3)n2)C1` (some centres not stated), the IC50 is under 1000 nM.

`NC(=O)C1CCN(c2cc(Nc3ccc4ncsc4c3)nc(NC3CCC3)n2)CC1` returned an IC50 of under 10000 nM.

For `COC(=O)Nc1ccc(C)c(Nc2nc(N[C@H]3CCNC3)nc(N(C)CC(C)(C)C)n2)c1`, the IC50 is under 1000 nM.

The molecule `CC(CNc1nc(Nc2ccc3ncsc3c2)nc(N2CCN(C(=O)C3CCOC3)CC2)n1)c1ccccc1` (configuration not stated) came in with an IC50 of under 10000 nM.

`CCNC(=O)c1ccc(C)c(Nc2nc(NC[C@H]3CCCN3)nc(N(C)CC(C)C)n2)c1` had an IC50 of under 1000 nM.

With `Cc1ccc(C(N)=O)cc1Nc1nc(NC2CCCNC2)nc(N(C)CC(C)(C)C)n1` (configuration not stated), the IC50 was under 1000 nM.

For the molecule `Cc1c(Cl)cc(C(N)=O)cc1Nc1nc(N[C@H]2CCNC2)nc(N(C)CC(C)C)n1`, the IC50 is under 1000 nM.

For the molecule `Cc1ccc(C(N)=O)cc1Nc1nc(NCCc2ccc3c(c2)OCO3)nc(N[C@H]2CCNC2)n1`, the 50% inhibitory concentration (IC50) is under 1000 nM.

With `CNC(=O)c1ccc(C)c(Nc2nc(N[C@H]3CCN(C(C)CO)C3)nc(N(C)CC(C)(C)C)n2)c1` (some centres not stated), the IC50 is under 1000 nM.

Take `CN(CC(C)(C)C)c1nc(N[C@@H]2CCNC2)nc(Sc2cc(C(N)=O)ccc2F)n1`: the IC50 was under 30000 nM.

For `COc1ccc(C(=O)N2CCN(c3nc(NCC(C)c4ccccc4)nc(Nc4ccc5ncsc5c4)n3)CC2)cc1` (configuration not stated), the IC50 is under 10000 nM.

As for `CONC(=O)c1ccc(C)c(Nc2nc(N[C@H]3CNC(=O)C3)nc(N(C)CC(C)(C)C)n2)c1`, the IC50 was under 1000 nM.

Turning to `Cc1ccc(C(=O)NC2CCCC2)cc1Nc1nc(N[C@H]2CCNC2)nc(N(C)CC(C)(C)C)n1`, the IC50 is under 1000 nM.

`Cc1cc(Cl)c(C(N)=O)cc1Nc1nc(N[C@H]2CCNC2)nc(N(C)CC(C)(C)C)n1` gave an IC50 of under 1000 nM.

`Cc1cccc(NC(=O)c2ccc(C)c(Nc3nc(N[C@H]4CCNC4)nc(N(C)CC(C)(C)C)n3)c2)c1` showed an IC50 of under 1000 nM.

On to `CC(=O)N(C)CCCN(C)c1nc(NCC(C)c2ccccc2)nc(Nc2ccc3ncsc3c2)n1` (configuration not stated), for which the IC50 is under 10000 nM.

`CCCN1CC[C@@H](Nc2nc(Nc3cc(C(N)=O)ccc3C)nc(N(C)CC(C)C)n2)C1` returned an IC50 of under 1000 nM.

In the case of `CC1(C)[C@H]2CCC(COc3nc(O)nc(Nc4ccc5ncsc5c4)n3)[C@@H]1C2` (some centres not stated), the IC50 was under 10000 nM.

Molecule `Cc1cccc(CN2CC[C@H](Nc3nc(Nc4cc(C(N)=O)ccc4C)nc(N(C)CC(C)C)n3)C2)c1` showed an IC50 of under 1000 nM.

The molecule `Cc1ccc(C(N)=O)cc1Nc1nc(N[C@H]2CN[C@@H](C)C2)nc(N(C)CC(C)(C)C)n1` yielded an IC50 of under 1000 nM.

In turn, `Cc1ccc(C(N)=O)cc1Nc1nc(NC2CCN(CCc3ccccc3)C2)nc(N(C)CC(C)C)n1` (configuration not stated) displayed an IC50 of under 1000 nM.

In turn, `Cc1ccc(C(=O)NCc2ccccc2)cc1Nc1nc(N[C@H]2CCNC2)nc(N(C)CC(C)(C)C)n1` showed an IC50 of under 1000 nM.

The molecule `Cc1ccc(C(N)=O)cc1Nc1nc(N[C@@H]2CCNC2)nc(N2CCCC(C(N)=O)C2)n1` (some centres not stated) displayed an IC50 of under 1000 nM.

For the molecule `Cc1ccc(C(N)=O)cc1Nc1cc(NC(C)c2ccccc2)nc(NCC(N)=O)n1` (configuration not stated), the IC50 is under 1000 nM.

`CCONC(=O)c1ccc(C)c(Nc2nc(N[C@H]3CCNC3)nc(N(C)CC(C)(C)C)n2)c1` showed an IC50 of under 1000 nM.

Regarding `CC(Cc1ccccc1)Nc1nc(Nc2ccc3ncsc3c2)nc(N2CCNCC2)n1` (configuration not stated), the half-inhibitory concentration (IC50) was under 10000 nM.

Molecule `Cc1ccc(C(N)=O)cc1Nc1nc(N[C@H]2CCN(Cc3ccccc3)C2)nc(N(C)CC(C)(C)C)n1` registered an IC50 of under 1000 nM.

For `CONC(=O)c1ccc(C)c(Oc2nc(N[C@@H]3CCNC3)nc(N(C)CC(C)(C)C)n2)c1`, the IC50 is under 30000 nM.

`CC(CNc1nc(Nc2ccc3ncsc3c2)nc(N2CC3CC2CN3C(=O)c2cccnc2)n1)c1ccccc1` (configuration not stated) gave an IC50 of under 10000 nM.

With `Cc1ccc(C(N)=O)cc1Nc1nc(N[C@H]2CCNC2)nc(N(C)CC(C)C(F)(F)F)n1` (some centres not stated), the IC50 is under 1000 nM.

Molecule `CONC(=O)c1ccc(C)c(Nc2nc(N[C@H]3CCN(C)C3)nc(N(C)CC(C)(C)C)n2)c1` displayed an IC50 of under 1000 nM.

`CC(CNc1nc(Nc2ccc3ncsc3c2)nc(N2CCN(C(=S)NC3CCCCC3)CC2)n1)c1ccccc1` (configuration not stated) displayed an IC50 of under 10000 nM.

As for `Cc1ccc(C(N)=O)cc1Nc1nc(N[C@H]2CCCC[C@H]2NC(=O)CO[C@H]2C[C@@H](C)CC[C@H]2C(C)C)nc(N(C)CC(C)C)n1`, the IC50 was under 1000 nM.

As to `Cc1ccc(C(N)=O)cc1Sc1nc(N(C)CC(C)(C)C)nc(N2CCCN(C)CC2)n1`, the IC50 was under 30000 nM.

`CONC(=O)c1ccc(C)c(Nc2nc(N[C@H]3CCNC3)nc(N(C)CC(C)(C)C)n2)c1` had an IC50 of under 1000 nM.

With `Cc1ccc(C(N)=O)cc1Nc1nc(N[C@H]2CCCNC2)nc(N(C)CC(C)(C)C)n1`, the IC50 is under 1000 nM.

As for `Cc1ccc(C(N)=O)cc1Nc1nc(NCC2CCCCC2)nc(N[C@@H]2CCNC2)n1`, the IC50 is under 1000 nM.

Molecule `Cc1ccc(C(=O)Nc2ccc(F)cc2)cc1Nc1nc(N[C@H]2CCNC2)nc(N(C)CC(C)(C)C)n1` yielded an IC50 of under 1000 nM.

Molecule `Cc1ccc(C(=O)NC2CCCCC2)cc1Nc1nc(N[C@H]2CCNC2)nc(N(C)CC(C)(C)C)n1` returned an IC50 of under 1000 nM.

For the molecule `Cc1ccc(C(N)=O)cc1Nc1nc(NC2CCCNC2)nc(N(C)CC(C)C)n1` (configuration not stated), the IC50 was under 1000 nM.

In turn, `Cc1ccc(C(N)=O)cc1Nc1nc(N[C@H]2CCN(Cc3ccc(C(C)(C)C)cc3)C2)nc(N(C)CC(C)C)n1` came in with an IC50 of under 1000 nM.

Molecule `Cc1ccc(C(N)=O)cc1Nc1nc(NC2CCCCC2)nc(N(C)CC(C)(C)C)n1` showed an IC50 of under 1000 nM.

`Cc1ccc(C(N)=O)cc1Nc1nc(NC2CCNC2)nc(NC2CCN(Cc3ccccc3)C2)n1` (configuration not stated) showed an IC50 of under 1000 nM.

For the molecule `NC(=O)c1ccc(N)c(Nc2nc(NC3CCNC3)nc(N3CCCC3)n2)c1` (configuration not stated), the IC50 was under 1000 nM.

In turn, `Clc1nc(Nc2ccc3ncsc3c2)nc(N2CCC3CCCCC3C2)n1` (configuration not stated) returned an IC50 of under 10000 nM.

`CONC(=O)c1ccc(C)c(Nc2nc(NCCCN3CCCC3)nc(N(C)CC(C)(C)C)n2)c1` showed an IC50 of under 1000 nM.

`CC(=O)N1CCN(c2nc(NCC(C)c3ccccc3)nc(Nc3ccc4ncsc4c3)n2)CC1` (configuration not stated) returned an IC50 of under 10000 nM.

In the case of `Cc1ccc(C(N)=O)cc1Nc1nc(N[C@H]2CCCNC2)nc(N(C)CC(C)C)n1`, the IC50 was under 1000 nM.

`CC(Cc1ccccc1)Nc1nc(Nc2ccc3ncsc3c2)nc(N(C)C)n1` (configuration not stated) had an IC50 of under 10000 nM.

As for `CCN1CC[C@@H](Nc2nc(Nc3cc(C(N)=O)ccc3C)nc(N(C)CC(C)(C)C)n2)C1`, the IC50 was under 1000 nM.

Molecule `CONC(=O)c1ccc(C)c(Nc2nc(NCCCN3CCOCC3)nc(N(C)CC(C)(C)C)n2)c1` gave a half-maximal inhibitory concentration (IC50) of under 1000 nM.

`Cc1ccc(CN2CCC(Nc3nc(Nc4cc(C(N)=O)ccc4C)nc(N(C)CC(C)C)n3)C2)c(C)c1` (configuration not stated) gave an IC50 of under 1000 nM.

As for `COCC(=O)N1CC2CC1CN2c1nc(NCC(C)c2ccccc2)nc(Nc2ccc3ncsc3c2)n1` (configuration not stated), the IC50 was under 10000 nM.

As for `CC(CNc1nc(Cl)nc(Nc2ccc3ncsc3c2)n1)c1ccc(Cl)cc1` (configuration not stated), the IC50 was under 10000 nM.

`Cc1ccc(CC2C[C@@H](Nc3nc(Nc4cc(C(N)=O)ccc4C)nc(N(C)CC(C)C)n3)CN2)cc1` (some centres not stated) showed an IC50 of under 1000 nM.

Molecule `CNC(=O)c1ccc(C)c(Nc2nc(N[C@H]3CCNC3)nc(N(C)CC(C)(C)C)n2)c1` showed an IC50 of under 1000 nM.

`Cc1ccc(C(N)=O)cc1Nc1nc(N[C@H]2CN[C@H](C)C2)nc(N(C)CC(C)(C)C)n1` gave a concentration for half-maximal inhibition (IC50) of under 1000 nM.

As for `CC1(C)[C@H]2CC[C@@H](CNc3nc(Nc4ccc5ncsc5c4)nc(N4CCNCC4)n3)[C@@H]1C2`, the IC50 is under 10000 nM.

`CC(C)C(=O)N1CC2CC1CN2c1nc(NCC(C)c2ccccc2)nc(Nc2ccc3ncsc3c2)n1` (configuration not stated) came in with a concentration for half-maximal inhibition (IC50) of under 10000 nM.

`Cc1cc2c(cc1Cl)C(=O)N2c1nc(N[C@H]2CCNC2)nc(N(C)CC(C)C)n1` registered an IC50 of under 1000 nM.

Regarding `Cc1ccc(-c2nnco2)cc1Nc1nc(N[C@@H]2CCNC2)nc(N(C)CC(C)(C)C)n1`, the IC50 is under 1000 nM.

`CCONC(=O)c1ccc(C)c(Nc2nc(N(C)CC(C)(C)C)nc(N3CCCNCC3)n2)c1` gave an IC50 of under 1000 nM.

(Values after the Kinase Knowledgebase extract (Sharma et al. 2016).)
